In patent publication US6900191B1, “1α-Hydroxyvitamin D5, its synthesis and use in cancer prevention” (OncQuest, Inc., priority 1997, dated 2005):
Entries after “also recorded” stand apart in the source; their conditions may differ.

Assays:
[1] = Calcemic activity: plasma calcium levels in vitamin D-deficient rats; type: in vivo, rat; settings: for increase in plasma calcium over vehicle-treated control group: 0.042 μg/kg per day; for increase in plasma calcium level compared with vehicle-treated rats: higher concentration, 0.25 μg/kg per day; for Plasma calcium: vitamin D-deficient rats, means +/− standard deviation
Protocol: Three-week-old Sprangue-Dawley male rats were obtained from the Holtzman Laboratory, Madison, Wis. Up to three rats were housed together in a polycarbonate cage. The animal cages were kept under yellow light. The rats (eight to 10 per group per concentration of both vitamin D analogues used) were fed a vitamin D-free diet containing 0.47 g/100 g calcium and 0.3 g/100 g phosphorus. After the rats had consumed this diet for 3 weeks, their plasma calcium levels were measured. […] Such rats were administered appropriate vitamin D analogues intragastrically for 14 days. At the end of this period, the plasma calcium levels were again measured. • 3. Induction Of Preneoplastic Lesions In Mammary Glands And Their Prevention By Vitamin D3 and D5 Analogues

[2] = system: 7,12-dimethylbenz[a]anthracene-induced lesions in BALB/c mouse mammary glands; experiment: DMBA-induced mammary lesions in mouse mammary gland organ culture; type: cell-based; settings: for number of glands exhibiting lesions / lesion formation, dependence on concentration: 0.01 μM to 10.0 μM; for No. of glands with lesions/total No. of glands treated: 10 days in culture; for % incidence of lesions: control 60.0
Protocol: Young, virgin BALB/c female mice, 3-4 weeks of age, were obtained from Charles River Laboratories, Wilmington, Mass. The mice were pretreated for 9 days with 17β-estradiol (1 μg in 0.1 mL saline per animal) and progesterone (1 mg in 0.1 mL saline per animal). They were then killed by cervical dislocation, and the thoracic pair of mammary glands was dissected out on silk rafts and incubated for 10 days in Waymouth MB752 medium (Life Technologies, Inc. [GIBCO BRL], Gauthersburg, Md.) containing the following growth-promoting hormones: insulin (5 μg/mL), prolactin (5 μg/mL), aldosterone (1 μg/mL), and hydrocortisone (1 μg/mL).
The carcinogen 7,12-dimethylbenz [a] anthracene (DMBA) at a dose of 2 μg/mL was added to the medium on day 3 for 24 hours to induce mammary lesions. The DMBA-containing medium was then removed, and the mammary glands were incubated for an additional 14 days with medium containing only insulin. […] These structures were termed “mammary lesions.”
The vitamin D analogues (ranging in concentration from 0.01 μM to 10.0 μM) were included in the medium during the first 10 days of the in vitro culture to determine if they lowered the incidence of mammary lesion formation. Throughout the culture period, the glands were maintained at 37° C. in an environment of 95% air and 5% CO2. At the end of the culture period, the glands were fixed in formalin, stained in alum-carmine solution, and evaluated for the presence or absence of mammary lesions. All hormones and chemicals were purchased from the Sigma Chemical Co., St. Louis, Mo. • 4. Immunohistochemistry Of VDRs And TGF-β1
To evaluate the efficacy of the newly synthesized vitamin D5 analogue in preventing mammary lesion formation, we incubated 15 mammary glands per group (135 glands in total) from BALB/c mice with appropriate hormones and exposed the glands to DMBA on day 3 for 24 hours (see “Experimental Equipment and Methods” section). The mammary glands were incubated for 10 days with the vitamin D analogues in concentrations ranging from 0.01 μM to 10.0 μM. The incidence of mammary lesions was calculated for each group and was reported as the ratio of the number of mammary glands showing lesions to the total number of mammary glands at risk.

[3] = system: mammary glands; experiment: Toxic effects and structural differentiation of mammary glands in organ culture; type: cell-based, mouse; settings: for toxicity to the glands, overall: 0.1 μM or 1.0 μM tested; for toxicity to mammary glands, gland structure: 3 days
Protocol: (§1) Normal mouse mammary glands were dissected and incubated with growth-promoting hormones either alone or in the presence of vitamin D analogues for only 3 days. In this experiment, the glands were not exposed to DMBA (see protocol described in the previous section). Instead, the glands were fixed in buffered formalin, and 5-μm-thick sections were prepared for histopathologic evaluations. The sections were mounted on adhesive-coated slides (Superfast: Fisher Scientific Co., Itasca, Ill.), dried at 60° C. for 1 hour, deparaffinized in xylene, […] in a series of alcohol, and finally washed with phosphate-buffered saline (PBS).
To determine the effects of vitamin D analogues on the structural differentiation as well as their toxic effects on mammary glands, we incubated mammary glands with growth-promoting hormones for 3 days either alone or in the presence of 0.1 μM or 1.0 μM vitamin D analogues. The control mammary gland structure was represented by normal alveolar and ductal structures.

[4] = system: VDR; experiment: Immunohistochemistry of VDRs in normal mouse mammary glands; type: cell-based; settings: 3 days
Protocol: as §1
(§2) To block the nonspecific antibody reactions, we treated the tissue sections with 5% dried skim milk for 10 minutes and then incubated them with primary mouse antibody (either against VDR or against TGF-β1, both obtained from BioGenex Laboratories, San Ramon, Calif.) overnight at 0-4° C. […]
(§3) The tissues were counterstained with hematoxylin-eosin, dehydrated through graded series of alcohol and xylene, and finally mounted in Permount (Fisher Scientific Co.). Slides were evaluated for the presence or absence of the VDR or TGF-β1 and for the intensity of staining in the positively strained samples. • 5. […]

[5] = system: ZR 75; experiment: Growth of human breast cancer cell line; type: cell-based
[6] = system: T47D; experiment: Growth of human breast cancer cell line; type: cell-based
[7] = system: MCF1Oneo; experiment: Growth of human breast cancer cell line; type: cell-based
[8] = system: MCF-7; experiment: Growth of human breast cancer cell line; type: cell-based
[9] = system: BCA-4; experiment: Growth of human breast cancer cell line; type: cell-based
[10] = system: breast cancer cells; experiment: Growth of analogue-differentiated breast cancer cells transplanted in athymic mice; type: in vivo, mouse; settings: cells differentiated with the analogue before transplantation
[11] = system: breast cancer cells; experiment: Growth of breast cancer cells in athymic mice injected with the analogue; type: in vivo, mouse; settings: injection of 8 mg, 3 × week/2 months, athymic mice bearing breast cancer cells
[12] = Stability studies on storage; type: physicochemical; settings: 20° C.
[13] = system: TGF-β1; experiment: Immunohistochemistry of TGF-β1 in normal mouse mammary glands; type: cell-based; settings: 1.0 μM, 3 days
Protocol: as §1, §2, §3

[14] = system: HL-60 human leukemia cells; settings: cited from earlier work
[15] = 0.042 μg/kg/day intragastrically for 14 days
[16] = 0.25 μg/kg/day intragastrically for 14 days

Structure (SMILES) | increase in plasma calcium over vehicle-treated control group [1] | increase in plasma calcium level compared with vehicle-treated rats [1] | Plasma calcium [1, 15] | Plasma calcium [1, 16] | No. of glands with lesions/total No. of glands treated ([2]; 0.01 μM) | % incidence of lesions ([2]; 0.01 μM) | No. of glands with lesions/total No. of glands treated ([2]; 0.1 μM) | % incidence of lesions ([2]; 0.1 μM) | No. of glands with lesions/total No. of glands treated ([2]; 1.0 μM) | % incidence of lesions ([2]; 1.0 μM) | No. of glands with lesions/total No. of glands treated ([2]; 10.0 μM) | % incidence of lesions ([2]; 10.0 μM) | toxicity to mammary glands, gland structure ([3]; 1.0 μM) | stability in solution [12] | storage stability in powder form [12] | further results
C=C1/C(=C\C=C2/CCC[C@]3(C)[C@@H]([C@H](C)CC[C@@H](CC)C(C)C)CC[C@@H]23)C[C@@H](O)C[C@@H]1O [1α(OH)D5, 1α-Hydroxyvitamin D5] | 11% | 50% | 6.0 ± 0.63 mg/dL | 7.9 ± 1.5 mg/dL | 6/16 | 37.5% | 4/16 | 25.0% | 2/14 | 14.3% | 0/15 | 0.0% | retained the healthy structural characteristics | one month | a year | calcemic effects compared with 1α,25(OH)2D3 ([1]; overall, both doses): overall lower calcemic effects; also recorded: much less calcemic; number of glands exhibiting lesions / lesion formation, dependence on concentration [2]: dose-related decrease; number of glands exhibiting lesions / lesion formation, dependence on concentration ([2]; listed as vitamin D5 analogue): inhibited the lesion formation in a dose-dependent manner; percent inhibition of formation of lesions ([2]; 10.0 μM): 100%; toxicity to the glands, overall [3]: did not result in any toxicity; toxicity to the glands, overall ([3]; listed as vitamin D5 analogue): considerably less toxic than the vitamin D3 analogue; expression of VDRs (staining) in mammary epithelial cells ([4]; 0.1 μM (lower concentration)): much less; expression of VDRs (staining) in mammary epithelial cells ([4]; 1.0 μM): induced expression of VDRs; growth of cell line [5]: inhibited growth; growth of cell line [6]: inhibited growth; growth of cell line [7]: inhibited growth; growth of cell line [8]: inhibited growth; growth of cell line [9]: inhibited growth; growth of differentiated cells when transplanted in athymic mice [10]: did not grow; growth of cancer cells in the animals [11]: inhibited growth
C=C1/C(=C\C=C2/CCC[C@]3(C)[C@@H]([C@H](C)CCCC(C)(C)O)CC[C@@H]23)C[C@@H](O)C[C@@H]1O [1α,25(OH)2D3, 1α,25-dihydroxyvitamin D3, reference compound] | 50% | 87% | 8.1 ± 1.2 mg/dL | 10.1 ± 1.8 mg/dL | two of 14 | 14.3% | 0/15 | 0.0% | 0/15 | 0.0% | 0/15 | 0.0% | disintegration of ducts and structural toxicity to the glands | one month | a year | Plasma calcium ([1]; 0.042 μg/kg/day intragastrically for 14 days, listed as 1α, 25(OH)2D3): 8.1 ± 1.2 mg/dL; Plasma calcium ([1]; 0.25 μg/kg/day intragastrically for 14 days, listed as 1α, 25 (OH)2D3): 10.1 ± 1.8 mg/dL; No. of glands with lesions/total No. of glands treated ([2]; 0.01 μM, listed as 1,25α-dihydroxyvitamin D3): 2/14; mammary lesions ([2]; concentrations higher than 0.01 μM): no mammary lesions were observed; toxicity to mammary glands, gland structure ([3]; 0.1 μM): did not show toxicity; concentrations toxic to the glands ([3]; 3 days in organ culture): ≥ 1000 nM; induction of TGF-β1 in mammary epithelial cells [13]: much reduced
C=C1/C(=C/C=C2\CCC[C@]3(C)C([C@H](C)CC#CC(O)(C(F)(F)F)C(F)(F)F)=CC[C@@H]23)C[C@@H](O)C[C@@H]1O [Ro24-5531, 1α, 25-dihydroxy-16-ene-23-yne-26,27-hexafluorocholecalciferol] | – | – | – | – | – | – | – | – | – | – | – | – | – | – | – | expression of TGF-β1 and its type 2 receptors [14]: induced expression
